The results in this text go back to PubChem BioAssay AID1033 (Sanford-Burnham Center for Chemical Genomics, 2008).

Active and inactive are the calls of the source. How the calls were made is not given here.

The term Kd denotes the equilibrium constant for the complex coming apart.

The assay concerns the target Chaperone protein DnaK (Escherichia coli (strain K12)) (UniProt P0A6Y8). Description: E. coli DnaK SBD ligand binding – biophysical, NMR, chaperone (AID 1033). To be noted: Purified DnaK SBD.

Chain of Chaperone protein DnaK (Escherichia coli (strain K12)) (P0A6Y8 whole entry, looked up): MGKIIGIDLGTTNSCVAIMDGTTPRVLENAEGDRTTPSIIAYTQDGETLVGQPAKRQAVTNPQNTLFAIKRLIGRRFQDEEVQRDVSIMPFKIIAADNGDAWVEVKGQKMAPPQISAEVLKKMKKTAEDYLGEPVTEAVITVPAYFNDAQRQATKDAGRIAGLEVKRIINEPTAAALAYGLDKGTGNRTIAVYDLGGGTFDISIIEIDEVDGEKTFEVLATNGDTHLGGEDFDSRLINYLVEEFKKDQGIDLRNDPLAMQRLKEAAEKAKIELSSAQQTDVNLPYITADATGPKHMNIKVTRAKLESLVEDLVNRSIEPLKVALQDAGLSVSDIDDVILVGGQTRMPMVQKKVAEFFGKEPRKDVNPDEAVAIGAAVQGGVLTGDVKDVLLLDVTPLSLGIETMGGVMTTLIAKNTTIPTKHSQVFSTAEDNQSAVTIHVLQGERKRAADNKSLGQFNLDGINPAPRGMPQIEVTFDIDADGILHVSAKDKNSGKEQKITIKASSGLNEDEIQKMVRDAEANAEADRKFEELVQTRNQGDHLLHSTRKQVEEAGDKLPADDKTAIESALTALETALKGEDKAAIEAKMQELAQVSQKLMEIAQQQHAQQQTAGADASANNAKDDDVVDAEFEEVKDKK

Take `OCc1nccn1Cc1ccccc1`: the Kd was > 4 mM (inactive).

In the case of `NC(=O)c1c[nH]c2ccccc12`, the Kd was > 4 mM (inactive).

Take `Cc1ccccc1-n1c(-c2ccncc2)n[nH]c1=S`: the Kd was > 4 mM (inactive).

Regarding `O=C(CS(=O)(=O)c1ccccc1)Nc1nccs1`, the Kd is > 4 mM (inactive).

Take `O=C(O)c1cccc(-n2cccc2)c1`: the Kd is > 4 mM (inactive).

With `CNC(=O)Nc1ccc(C(=O)NC)cc1`, the Kd is > 4 mM (inactive).

Turning to `C=C(C)[C@H]1CC=C(C(=O)O)CC1`, the Kd is > 4 mM (inactive).

Take `Cn1c(=O)c2c([nH]c(=O)n2C)n(C)c1=O`: the Kd is > 4 mM (inactive).

As to `O=C(O)CCC(=O)Nc1nnc(C(F)(F)F)s1`, the Kd was > 4 mM (inactive).

For the compound `CC(=O)Nc1cccc(NC(=O)c2cccnc2)c1`, the Kd was > 4 mM (inactive).

As for `NC(=O)c1cc(N)cc(C(N)=O)c1`, the Kd was > 4 mM (inactive).

Consider `O=c1[nH]cc(N=Cc2ccc(F)cc2)c(=O)[nH]1`, for which the Kd is > 4 mM (inactive).

For `Brc1ccc(-c2nc(-c3ccncc3)no2)o1`, the Kd was > 4 mM (inactive).

With `O=C(O)CCNc1n[nH]c(=O)[nH]c1=O`, the Kd is > 4 mM (inactive).

Regarding `Cn1cnc2c(=O)[nH]cc([N+](=O)[O-])c21`, the Kd was > 4 mM (inactive).

As to `c1ccc(SCc2nc(-c3ccncc3)no2)cc1`, the Kd was > 4 mM (inactive).

For the compound `Clc1ccccc1OCc1nc(-c2ccncc2)no1`, the Kd was > 4 mM (inactive).

Take `O=C1CC2OCC=C3CN4CC[C@]56c7ccccc7N1C5[C@H]2[C@H]3CC46` (stereo partly drawn): the Kd was > 4 mM (inactive).

Take `Nc1cccc(OC(F)(F)F)c1`: the Kd is > 4 mM (inactive).

`Cc1cc(C)nc(/N=C(/N)Nc2cccc(F)c2)n1`: the Kd is > 4 mM (inactive).

As to `CC1=C2[C@H]3OC(=O)[C@@H](C)[C@@H]3CC[C@@]2(C)C=CC1=O`, the Kd is > 4 mM (inactive).

Turning to `Cn1c(SCC(N)=O)nnc1-c1c[nH]c2ccccc12`, the Kd was > 4 mM (inactive).

As to `Cc1ccc(NC(=O)CN2C(=O)CSC2=O)cc1`, the Kd is > 4 mM (inactive).

Take `Cc1sc2nc(SC3CCOC3=O)[nH]c(=O)c2c1C` (stereo not drawn): the Kd was > 4 mM (inactive).

For `Cc1[nH]c(=O)[nH]c(=O)c1N1CCOCC1`, the Kd is > 4 mM (inactive).

With `NS(=O)(=O)c1ccc(F)cc1`, the Kd is > 4 mM (inactive).

Regarding `CC(C)CC(=O)NC1CCSC1=O` (stereo not drawn), the Kd is > 4 mM (inactive).

On to `O=S(=O)(NCc1ccco1)c1cccc2cccnc12`, for which the Kd is > 4 mM (inactive).

Consider `CC(=O)Nc1cc(N2C(=O)C=CC2=O)ccc1Cl`, for which the Kd is > 4 mM (inactive).

For the compound `O=C(c1cnsn1)N1CCN(c2ccccn2)CC1`, the Kd was > 4 mM (inactive).

In the case of `CC(C)=CCc1c(O)cc2oc(C)cc(=O)c2c1O`, the Kd was > 4 mM (inactive).

With `CCOC(=O)Cc1nc2ccccc2[nH]1`, the Kd was > 4 mM (inactive).

On to `OCc1ccc(N2CCOCC2)cc1`, for which the Kd was > 4 mM (inactive).

Regarding `OCc1c[nH]c2ccccc12`, the Kd was > 4 mM (inactive).

In the case of `Cc1cc(N)no1`, the Kd is > 4 mM (inactive).

Turning to `O=C(CC1CCCCC1)N1CCN(c2ccccn2)CC1`, the Kd is > 4 mM (inactive).

For `CCOC(=O)CN1C(=O)c2ccccc2C1=O`, the Kd was > 4 mM (inactive).

Take `O=c1cc(-c2cc(O)c(O)c(O)c2)oc2cc(O)cc(O)c12`: the Kd was > 4 mM (inactive).

Regarding `Cc1ccc(-n2[nH]c(C)cc2=O)cc1`, the Kd is > 4 mM (inactive).

With `Cc1nn(CC(=O)N2CCCCC2)c(=O)c2ccccc12`, the Kd is > 4 mM (inactive).

Consider `Cc1cccc(-c2nnc(-c3ccc(N)cc3)o2)c1`, for which the Kd was > 4 mM (inactive).

Turning to `CCc1ccccc1NC(=O)c1cnccn1`, the Kd was > 4 mM (inactive).

For the compound `Nc1cccnc1N1CCOCC1`, the Kd was > 4 mM (inactive).
